The source made the active and inactive calls. Cut-off read from the data, not from the text of the source, for most assays here: actives have a measured IC50 and inactives only a lower limit.
Key:
Format in all cases: functional
[1] = target: T1, Sentrin-specific protease 8 (Homo sapiens, UniProt Q96LD8); experiment: SENP8 protease inhibitors, SAR follow-up, biochemical, luminescence (AID 504501)
T1 sequence (Q96LD8 whole entry): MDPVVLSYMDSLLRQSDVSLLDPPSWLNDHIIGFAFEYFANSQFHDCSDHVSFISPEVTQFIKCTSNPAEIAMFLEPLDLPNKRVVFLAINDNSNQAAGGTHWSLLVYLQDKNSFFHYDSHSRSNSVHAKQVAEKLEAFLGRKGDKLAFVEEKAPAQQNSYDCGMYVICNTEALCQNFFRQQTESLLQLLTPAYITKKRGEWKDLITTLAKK

Protein RecA = target: T2, Protein RecA (Mycobacterium tuberculosis, UniProt P9WHJ3); experiment: Fluorescence Cell-Free Homogeneous Dose Retest to Identify Inhibitors of RecA-Intein Splicing Activity. [Related pubchem assays (depositor defined):AID2097, AID2223, AID489010, AID492950]
T2 sequence (P9WHJ3 whole entry): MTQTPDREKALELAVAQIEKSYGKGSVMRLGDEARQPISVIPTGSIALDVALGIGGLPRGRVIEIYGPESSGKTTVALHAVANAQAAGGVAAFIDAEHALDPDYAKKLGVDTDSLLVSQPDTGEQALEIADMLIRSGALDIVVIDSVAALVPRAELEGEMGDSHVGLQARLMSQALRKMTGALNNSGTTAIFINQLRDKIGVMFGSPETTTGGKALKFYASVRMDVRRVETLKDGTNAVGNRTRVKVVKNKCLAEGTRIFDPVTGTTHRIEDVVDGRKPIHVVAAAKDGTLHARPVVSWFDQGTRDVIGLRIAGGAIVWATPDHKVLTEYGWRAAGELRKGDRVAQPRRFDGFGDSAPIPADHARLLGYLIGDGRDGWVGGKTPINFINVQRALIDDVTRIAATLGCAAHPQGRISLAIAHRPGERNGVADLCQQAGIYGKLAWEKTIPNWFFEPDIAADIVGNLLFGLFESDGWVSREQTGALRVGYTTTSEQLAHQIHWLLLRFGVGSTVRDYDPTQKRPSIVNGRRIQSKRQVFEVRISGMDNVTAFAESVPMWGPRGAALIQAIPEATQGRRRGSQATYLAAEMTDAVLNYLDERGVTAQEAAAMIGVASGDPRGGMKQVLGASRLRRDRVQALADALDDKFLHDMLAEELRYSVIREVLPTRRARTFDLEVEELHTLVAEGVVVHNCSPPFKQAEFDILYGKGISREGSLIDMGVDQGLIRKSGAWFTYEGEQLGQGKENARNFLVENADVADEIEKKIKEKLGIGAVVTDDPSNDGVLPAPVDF

Caspase-3 = target: T3, Caspase-3 (Homo sapiens, UniProt P42574); experiment: SAR Analysis of small molecule inhibitors of Sentrin-specific proteases (SENPs) using a Caspase-3 Selectivity assay. [Related pubchem assays (depositor defined):AID2540, AID2599, AID434973, AID489001]
T3 sequence (P42574 whole entry): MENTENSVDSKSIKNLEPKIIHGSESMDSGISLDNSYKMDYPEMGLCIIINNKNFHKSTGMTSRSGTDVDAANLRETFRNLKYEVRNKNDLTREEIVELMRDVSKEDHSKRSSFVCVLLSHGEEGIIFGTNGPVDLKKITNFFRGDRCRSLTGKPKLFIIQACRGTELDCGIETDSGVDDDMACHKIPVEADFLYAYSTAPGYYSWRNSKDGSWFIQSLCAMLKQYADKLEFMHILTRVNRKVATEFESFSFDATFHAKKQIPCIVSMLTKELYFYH

[2] = target: T4, Sentrin-specific protease 6 (Homo sapiens, UniProt Q9GZR1); experiment: SAR Analysis of small molecule inhibitors of Sentrin-specific protease 6 (SENP6) using a Luminescent assay. [Related pubchem assays (depositor defined):AID2582, AID2599]
T4 sequence (Q9GZR1 whole entry): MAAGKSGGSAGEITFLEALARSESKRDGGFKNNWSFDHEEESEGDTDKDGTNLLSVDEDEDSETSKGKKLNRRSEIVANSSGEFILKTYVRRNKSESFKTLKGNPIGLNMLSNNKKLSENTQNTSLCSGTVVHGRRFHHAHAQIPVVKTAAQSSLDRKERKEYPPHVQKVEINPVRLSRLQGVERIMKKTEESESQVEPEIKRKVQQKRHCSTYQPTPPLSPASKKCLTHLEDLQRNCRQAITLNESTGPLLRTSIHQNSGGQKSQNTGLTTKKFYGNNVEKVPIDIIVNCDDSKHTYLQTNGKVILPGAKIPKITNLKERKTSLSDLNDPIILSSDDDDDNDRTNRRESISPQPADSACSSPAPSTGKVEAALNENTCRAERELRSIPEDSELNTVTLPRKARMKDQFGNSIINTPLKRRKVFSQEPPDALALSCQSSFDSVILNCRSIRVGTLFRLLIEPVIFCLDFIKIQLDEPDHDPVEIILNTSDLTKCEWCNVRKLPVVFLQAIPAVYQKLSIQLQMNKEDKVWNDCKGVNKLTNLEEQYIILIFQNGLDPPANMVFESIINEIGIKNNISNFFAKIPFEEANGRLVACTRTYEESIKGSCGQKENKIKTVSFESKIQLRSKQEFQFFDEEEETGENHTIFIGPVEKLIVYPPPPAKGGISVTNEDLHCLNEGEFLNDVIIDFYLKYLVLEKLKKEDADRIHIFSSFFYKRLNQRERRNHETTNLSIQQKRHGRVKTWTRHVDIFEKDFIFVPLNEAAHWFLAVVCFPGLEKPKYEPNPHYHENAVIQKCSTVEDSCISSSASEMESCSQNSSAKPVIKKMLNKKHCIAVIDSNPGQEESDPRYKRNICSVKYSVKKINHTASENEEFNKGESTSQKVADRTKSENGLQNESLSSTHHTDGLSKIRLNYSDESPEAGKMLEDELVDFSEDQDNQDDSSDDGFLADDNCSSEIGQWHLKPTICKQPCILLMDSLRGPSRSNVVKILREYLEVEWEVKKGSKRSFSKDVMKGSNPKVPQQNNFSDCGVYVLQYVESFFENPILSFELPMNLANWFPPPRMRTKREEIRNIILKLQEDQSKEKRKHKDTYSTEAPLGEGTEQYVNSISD

[3] = target: T1, Sentrin-specific protease 8
A-375 = experiment: MITF: Counter assay: A375 proliferation Measured in Cell-Based System Using Plate Reader - 2084-03_Inhibitor_Dose_DryPowder_Activity. [Related pubchem assays (depositor defined):AID488944]; details: Homo sapiens

COc1ccc(C(N)c2nccc3cc(OC)c(OC)cc23)cc1OC (centres undefined)
IC50 [1]: > 99 µM (inactive) | EC50 (Protein RecA): > 380 µM (inactive) | IC50 (Caspase-3): > 99 µM (inactive) | IC50 [2]: > 99 µM (inactive)

N#Cc1c(NC(=O)CSc2nc[nH]n2)sc2c1CCCCC2
IC50 [3]: 4.66 µM (active) | IC50 [1]: 12.7 µM (active) | AC50 (A-375): > 35 µM (active) | IC50 (Caspase-3): 40.4 µM (active) | IC50 [2]: 8.05 µM (active)

— ChEMBL document CHEMBL1201862, “PubChem BioAssay data set” (2004)
